Values quoted from earlier work in paper PMC12736120, “First-in-Human Phase I Clinical Trial of SLC-391, a Novel and Selective AXL Inhibitor, in Patients with Advanced Solid Tumours” (Pharmaceuticals, 2025).

Key:
AXL = details: stated in the Introduction, no reference given; read-out: IC50 against AXL; cited from earlier work
[1] = test system: multiple solid tumour and haematological tumour models; design: method as in PMID 33786587, doi:10.1158/1538-7445.AM2014-2716, doi:10.1158/1538-7445.AM2014-1746, doi:10.1158/1538-7445.AM2015-5393, doi:10.1158/1538-7445.AM2017-4196; details: alone or in combination with chemotherapy or immune checkpoint blockade; models including lung cancer, colon cancer, CML, AML; cited from earlier work

In the case of `Nc1ncc(-c2cnn(C3CCNCC3)c2)cc1-c1nnc(CC2CC2)o1` [SLC-391, 3-(5-[cyclopropylmethyl]-1,3,4-oxadiazol-2-yl)-5-(1-[piperidin-4-yl]-1H-pyrazol-4-yl)-pyridin-2-amine], the IC50 (AXL) is listed as 9.6 nM and the tumour growth inhibition [1] is listed as “results in tumour growth inhibition”.
